Source: the NIST ThermoML archive (doi:10.1016/j.jct.2004.11.012)
± gives the expanded uncertainty stated by the source.

Conditions: 101.33 kPa, Liquid

mass density (298.15 K) [kg/m3] | mass density (308.15 K) [kg/m3] | Compound
735.356 ± 0.27 | 724.85 ± 0.28 | COC(C)(C)C [2-methoxy-2-methylpropane]
890.438 ± 0.28 | 880.857 ± 0.28 | C=C(C)C(=O)OCCCC [butyl 2-methyl-2-propenoate]
927.997 ± 0.17 | 917.423 ± 0.18 | C=CCOC(=O)C(=C)C [2-propenyl 2-methylpropenoate]
1009.13 ± 0.13 | 998.64 ± 0.13 | C=C(C)C(=O)O [2-methyl-2-propenoic acid]

Compound | mass density (298.15 K) [kg/m3] | mass density (308.15 K) [kg/m3]
C=COC(C)=O [vinyl acetate] | 925.775 ± 0.16 | 913.134 ± 0.16
